Assay results as given in patent US20060051754A1, “Transporter selectively transporting sulfate conjugate and its gene” (Japan Science and Technology Agency, priority 2002, published 2006).
Where a name gives a salt, the structure may show the parent alone.

Tests used:
Type in all cases: cell-based
human OAT7 [1] = target: T1, human OAT7 (Homo sapiens, UniProt Q8IVM8); test: inhibition of [3H]estrone-sulfate conjugate uptake by OAT7-expressing oocyte (substrate selectivity); conditions: [3H]estrone-sulfate conjugate 1 μM, 100 μM of unlabeled compound; FIGS. 8, 9, 10A and 10B
T1 construct: expressed in transfected cells
Procedure: (§1) A substrate uptake experiment was performed on the oocyte into which the human OAT7 gene cRNA was injected and a control oocyte into which water was injected, using the [^3H]estrone-sulfate conjugate and the [^3H]dehydroepiandrosterone-sulfate conjugate as the substrates in accordance with the method of Kanai et al. (Kanai and Hediger, Nature, Vol. 360, pp. 467 to 471, 1992) as described below. After leaving the oocyte in an ND96 solution (96 mM sodium chloride, 2 mM potassium chloride, 1.8 mM calcium chloride, 1 mM magnesium chloride, 5 mM HEPES, pH7.4) containing the [^3H]estrone-sulfate conjugate (50 nM) and the [^3H]dehydroepiandrosterone-sulfate conjugate (100 nM) as a substrate for 60 minutes, and an uptake ratio of the substrate was measured by way of counting radioactivity taken up into the cells.
In the [^3H]estrone-sulfate conjugate uptake experiment using an oocyte into which the human OAT7 gene cRNA was injected, the effect of addition of various organic anions and organic cations on the system was examined.
The [^3H]estrone-sulfate conjugate uptake experiment was conducted using the oocyte into which the human OAT7 gene cRNA was injected and in accordance with the method described in Example 2(1). In the experiment, [^3H]estrone-sulfate conjugate (1 μM) uptake was measured under the presence and the absence of 100 μM of various compounds (unlabeled).
Since OAT7 is the organic anion transporter existing in the liver, effects of various organic anions which are considered to be transported in the hepatic cells on the [^3H]estrone-sulfate conjugate uptake by way of OAT7 were examined.
In order to clarify which one of the sulfate conjugate, the glucuronide conjugate, the glutathione conjugate is accepted by OAT7, effects of various conjugate compounds on the [^3H]estrone-sulfate conjugate uptake were examined.

human OAT7 [2] = target: T1, human OAT7; test: Michaelis-Menten kinetics test on OAT7 (oocyte uptake); conditions: mean±standard error; OAT7-expressing oocyte; FIGS. 7A and 7B
Procedure: as §1
A Michaelis-Menten kinetics test on the liver specific organic anion transporter OAT7 selectively transporting a sulfate conjugate was conducted. The Michaelis-Menten kinetics test on OAT7 was performed by examining changes in uptake ratio of the substrate [^3H]estrone-sulfate conjugate and the [^3H]dehydroepiandrosterone-sulfate conjugate depending on the concentrations of the substrate [^3H]estrone-sulfate conjugate and the [^3H]dehydroepiandrosterone-sulfate conjugate. […]

human OAT7 [3] = target: T1, human OAT7; test: substrate uptake experiment by oocyte into which the human OAT7 gene cRNA was injected
Procedure: After expressing the human OAT7 gene cRNA in an oocyte, [^3H]estrone-sulfate conjugate uptake and [^3H]dehydroepiandrosterone-sulfate conjugate uptake were measured.
After injecting 20 ng of the human OAT7 gene cRNA into the oocyte to be expressed, a 3-days culture was performed.
as §1
Time passage of the substrate uptake by the oocyte into which the human OAT7 gene cRNA was injected and a control oocyte into which water was injected was observed using the [^3H]estrone-sulfate conjugate (50 nM) as the substrate and in accordance with the method of Example 2(1).
The effect of salt added in the culture used in the [^3H]estrone-sulfate conjugate (50 nM) uptake experiment were examined using an oocyte into which the human OAT7 gene cRNA was injected and a control oocyte into which water was injected.
The [^3H]estrone-sulfate conjugate uptake experiment was conducted in accordance with the method described in Example 2(1) using the oocyte into which the human OAT7 gene cRNA was injected. In the experiment, a sodium ion free absorption solution (wherein 96 mM sodium chloride was substituted with 96 mM choline chloride) was used as an uptake solution in place of the standard absorption solution for the purpose of observing the effect of the sodium ion.

T1 sequence (Q8IVM8 whole entry): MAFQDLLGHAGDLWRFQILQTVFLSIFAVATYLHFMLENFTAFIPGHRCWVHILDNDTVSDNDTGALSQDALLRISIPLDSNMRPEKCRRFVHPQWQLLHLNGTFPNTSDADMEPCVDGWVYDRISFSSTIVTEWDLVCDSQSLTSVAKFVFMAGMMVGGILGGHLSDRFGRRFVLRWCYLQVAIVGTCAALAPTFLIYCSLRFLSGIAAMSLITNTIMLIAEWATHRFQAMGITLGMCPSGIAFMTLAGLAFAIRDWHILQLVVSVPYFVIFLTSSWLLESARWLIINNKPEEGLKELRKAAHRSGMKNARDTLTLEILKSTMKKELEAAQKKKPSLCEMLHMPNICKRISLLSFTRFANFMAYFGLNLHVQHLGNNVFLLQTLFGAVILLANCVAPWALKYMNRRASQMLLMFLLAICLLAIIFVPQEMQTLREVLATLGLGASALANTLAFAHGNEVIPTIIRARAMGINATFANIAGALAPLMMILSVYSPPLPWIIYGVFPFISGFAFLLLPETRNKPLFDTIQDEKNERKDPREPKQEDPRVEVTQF

SMILES | cys-inhibition effect on [3H]estrone-sulfate conjugate uptake (human OAT7 [1]) | further results
Cc1cc(=O)oc2cc(OS(=O)(=O)O)ccc12 [4-methylumbelliferyl sulfate conjugate] | significant cys-inhibition effect | 
C[C@]12CC[C@H](OS(=O)(=O)O)CC1=CC[C@@H]1[C@@H]2CC[C@]2(C)C(=O)CC[C@@H]12 [dehydroepiandrosterone-sulfate conjugate] | significant cys-inhibition effect | Km (human OAT7 [2]): 2.2 ± 0.3 µM; [3H]dehydroepiandrosterone-sulfate conjugate uptake by oocytes in which OAT7 was expressed vs control oocyte into which water was injected (human OAT7 [3]; substrate 100 nM, ND96 solution pH7.4, 60 minutes, FIG. 6A): significantly greater
C[C@]12CC[C@@H]3c4ccc(OS(=O)(=O)O)cc4CC[C@H]3[C@@H]1CCC2=O [estrone-sulfate conjugate] | significant cys-inhibition effect | Km (human OAT7 [2]): 8.7 ± 1.1 µM; [3H]estrone-sulfate conjugate uptake by oocytes in which OAT7 was expressed vs control oocyte into which water was injected (human OAT7 [3]; substrate 50 nM, ND96 solution pH7.4, 60 minutes, FIG. 6A): significantly greater; effect of change of extracellular sodium to choline on uptake (human OAT7 [3]; substrate 50 nM, 96 mM sodium chloride substituted with 96 mM choline chloride, FIG. 6C): no effect; time dependency of uptake by way of OAT7 (human OAT7 [3]; substrate 50 nM, FIG. 6B): increases substantially linearly in a time dependent manner till the passage of 120 minutes
CC1(C)C(/C=C/C=C/C=C/C=C2\N(CCCCS(=O)(=O)[O-])c3ccc4ccccc4c3C2(C)C)=[N+](CCCCS(=O)(=O)[O-])c2ccc3ccccc3c21.[Na+] [indocyanin green] | significant cys-inhibition effect | 
N=c1nc(N2CCCCC2)cc(N)n1OS(=O)(=O)O [minoxidil-sulfate conjugate] | significant cys-inhibition effect | 
O=[N+]([O-])c1ccc(OS(=O)(=O)O)cc1 [p-nitrophenol-sulfate conjugate] | significant cys-inhibition effect | 
O=C1OC(c2ccc(O)c(S(=O)(=O)O)c2)(c2ccc(O)c(S(=O)(=O)O)c2)c2c(Br)c(Br)c(Br)c(Br)c21 [sulfobromophthalein] | significant cys-inhibition effect | 
C[C@]12CC[C@@H]3c4ccc(OS(=O)(=O)O)cc4CC[C@H]3[C@@H]1CC[C@@H]2O [β-estradiol-sulfate conjugate] | significant cys-inhibition effect | 
